From US20090227607A1, “DEAZAPURINES USEFUL AS INHIBITORS OF JANUS KINASES” (priority 2006, published 2009) come the findings set out here.

Usually Ki stands for a dissociation constant, usually derived from enzyme kinetics or from competition with a known ligand.

In one assay the target is JAK-2 enzyme (Homo sapiens, UniProt O60674). Kind of assay: JAK2 Inhibition Assay. It counts as biochemical. Particulars: 15 μM poly(Glu)4Tyr, 12 μM ATP, 25° C. Here is the method:
(§1) Compounds were screened for their ability to inhibit JAK3 using the assay shown below. Reactions were carried out in a kinase buffer containing 100 mM HEPES (pH 7.4), 1 mM DTT, 10 mM MgCl2, 25 mM NaCl, and 0.01% BSA. Substrate concentrations in the assay were 5 μM ATP (200 uCi/μmole ATP) and 1 μM poly(Glu)4Tyr. Reactions were carried out at 25° C. and 1 nM JAK3.
(§2) To each well of a 96 well polycarbonate plate was added 1.5 μl of a candidate JAK3 inhibitor along with 50 μl of kinase buffer containing 2 μM poly(Glu)4Tyr and […]. This was then mixed and […] of kinase buffer containing 2 nM JAK3 enzyme was added to start the reaction. After 20 minutes at room temperature (25° C.), the reaction was stopped with 50 μl of 20% trichloroacetic acid (TCA) that also contained 0.4 mM ATP. The entire contents of each well were then transferred to a 96 well glass fiber filter plate using a TomTek Cell Harvester. After washing, 60 μl of scintillation fluid was added and ^33P incorporation detected on a Perkin Elmer TopCount.
The assays were as described above in Example 36 except that JAK-2 enzyme was used, the final poly(Glu)4Tyr concentration was 15 μM, and final ATP concentration was 12 μM.
(§3) Tables 5 and 6 depict enzyme inhibition data (Ki) for certain exemplary compounds. Compound numbers in Tables 5 and 6 correspond to those compounds depicted in Tables 1 and 2, respectively.

The next assay addresses T1, JAK3 (Homo sapiens, UniProt P52333).
T1 sequence (P52333 1-1124): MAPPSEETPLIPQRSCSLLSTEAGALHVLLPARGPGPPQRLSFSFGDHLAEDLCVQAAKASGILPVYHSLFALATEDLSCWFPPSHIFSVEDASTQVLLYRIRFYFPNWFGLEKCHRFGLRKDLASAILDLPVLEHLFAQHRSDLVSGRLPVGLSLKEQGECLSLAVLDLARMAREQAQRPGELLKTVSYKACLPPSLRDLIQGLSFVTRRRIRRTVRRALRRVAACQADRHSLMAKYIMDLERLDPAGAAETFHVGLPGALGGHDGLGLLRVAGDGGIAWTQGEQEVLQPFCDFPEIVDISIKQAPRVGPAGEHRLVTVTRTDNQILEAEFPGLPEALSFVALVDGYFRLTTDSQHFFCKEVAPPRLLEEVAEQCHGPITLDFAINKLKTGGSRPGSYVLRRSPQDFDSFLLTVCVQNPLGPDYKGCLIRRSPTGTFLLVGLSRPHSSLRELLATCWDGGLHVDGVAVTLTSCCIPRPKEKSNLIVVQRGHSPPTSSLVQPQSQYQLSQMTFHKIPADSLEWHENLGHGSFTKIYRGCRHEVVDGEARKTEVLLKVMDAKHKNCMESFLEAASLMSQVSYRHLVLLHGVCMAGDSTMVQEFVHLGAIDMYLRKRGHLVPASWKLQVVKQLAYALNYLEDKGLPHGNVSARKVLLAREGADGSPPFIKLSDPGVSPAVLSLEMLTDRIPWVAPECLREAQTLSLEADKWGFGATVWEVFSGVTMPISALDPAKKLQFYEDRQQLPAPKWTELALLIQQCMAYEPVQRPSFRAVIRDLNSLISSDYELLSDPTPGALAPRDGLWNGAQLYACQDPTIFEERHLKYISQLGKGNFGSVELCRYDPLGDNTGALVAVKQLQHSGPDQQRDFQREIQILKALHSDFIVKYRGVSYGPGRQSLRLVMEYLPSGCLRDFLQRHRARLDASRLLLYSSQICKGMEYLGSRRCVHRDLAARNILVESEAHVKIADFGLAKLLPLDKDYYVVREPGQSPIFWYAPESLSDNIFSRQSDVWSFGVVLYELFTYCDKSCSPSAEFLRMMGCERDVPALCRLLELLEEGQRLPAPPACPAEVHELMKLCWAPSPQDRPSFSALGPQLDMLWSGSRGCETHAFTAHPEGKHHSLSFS
Briefly: JAK3 Inhibition Assay. It counts as biochemical. Particulars: 1 μM poly(Glu)4Tyr, 5 μM ATP, 1 nM JAK3, 25° C.; read-out: JAK3 enzyme inhibition data (Ki). Here is the method: as §1, §2, §3

Each structure is given as a SMILES string.

JAK-2 enzyme, sequence (O60674 whole entry, species assumed): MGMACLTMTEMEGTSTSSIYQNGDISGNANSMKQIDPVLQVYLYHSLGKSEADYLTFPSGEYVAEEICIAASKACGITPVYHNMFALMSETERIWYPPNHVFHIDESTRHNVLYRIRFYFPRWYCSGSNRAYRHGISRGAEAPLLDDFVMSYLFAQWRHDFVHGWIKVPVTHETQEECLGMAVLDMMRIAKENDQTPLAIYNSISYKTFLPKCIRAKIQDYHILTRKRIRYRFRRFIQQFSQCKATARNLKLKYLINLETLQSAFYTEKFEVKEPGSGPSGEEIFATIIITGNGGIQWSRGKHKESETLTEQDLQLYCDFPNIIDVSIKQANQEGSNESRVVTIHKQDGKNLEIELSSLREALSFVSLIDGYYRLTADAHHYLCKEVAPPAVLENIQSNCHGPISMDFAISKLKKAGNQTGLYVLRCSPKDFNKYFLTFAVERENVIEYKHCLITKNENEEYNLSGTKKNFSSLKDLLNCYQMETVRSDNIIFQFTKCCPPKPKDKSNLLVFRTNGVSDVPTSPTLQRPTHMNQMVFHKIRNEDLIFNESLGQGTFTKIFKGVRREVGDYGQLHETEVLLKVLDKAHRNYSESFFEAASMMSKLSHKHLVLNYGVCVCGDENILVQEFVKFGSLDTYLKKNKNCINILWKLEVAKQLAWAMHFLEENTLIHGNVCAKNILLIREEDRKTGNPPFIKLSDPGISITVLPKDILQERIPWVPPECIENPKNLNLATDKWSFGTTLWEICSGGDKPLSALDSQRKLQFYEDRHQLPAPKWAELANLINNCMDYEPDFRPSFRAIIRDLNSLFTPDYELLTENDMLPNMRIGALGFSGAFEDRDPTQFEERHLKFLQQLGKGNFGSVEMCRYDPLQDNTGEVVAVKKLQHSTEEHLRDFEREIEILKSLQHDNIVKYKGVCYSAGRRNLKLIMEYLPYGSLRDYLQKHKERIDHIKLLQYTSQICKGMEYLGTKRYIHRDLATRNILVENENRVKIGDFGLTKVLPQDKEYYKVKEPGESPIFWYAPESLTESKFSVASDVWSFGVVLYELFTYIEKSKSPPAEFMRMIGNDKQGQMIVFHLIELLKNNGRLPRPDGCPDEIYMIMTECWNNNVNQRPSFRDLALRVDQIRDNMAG

As to `CC[C@@H]1CC[C@@H](CC)N1C(=O)c1ccc(-c2ncnc3[nH]ccc23)o1` [Compound 194], the Ki at JAK-2 enzyme and on JAK3 was less than 100 nM in each case.

For `C[C@@H]1CC[C@@H](C)N1C(=O)c1ccc(-c2ncnc3[nH]ccc23)o1` [Compound 126], the Ki on JAK-2 enzyme and on JAK3 was less than 100 nM throughout.

On to `COC(C)C(=O)Nc1nc(-c2ncnc3[nH]ccc23)cs1` (stereo not drawn) [Compound 97], for which the Ki was less than 100 nM at JAK-2 enzyme and 100 to 500 nM on JAK3.

For `C=CCN(CC=C)C(=O)c1cc(-c2ncnc3[nH]ccc23)c[nH]1` [Compound 17], the inhibitory constant (Ki) at JAK-2 enzyme and at JAK3 was less than 100 nM in each case.

Turning to `c1nc(-c2cn[nH]c2)c2cc[nH]c2n1` [Compound 5], the Ki at JAK-2 enzyme and on JAK3 was 100 to 500 nM each time.

Turning to `C[C@H](O)CNC(=O)c1cc(-c2ncnc3[nH]ccc23)c[nH]1` [Compound 140], the figures for the Ki on JAK-2 enzyme and on JAK3 were less than 100 nM and 100 to 500 nM, respectively.

On to `CC1CCCN1C(=O)c1ccc(-c2ncnc3[nH]ccc23)o1` (stereo not drawn) [Compound 218], for which the Ki was less than 100 nM on JAK-2 enzyme and 100 to 500 nM on JAK3.

`O=C(c1cc(-c2ncnc3[nH]ccc23)c[nH]1)N1CCC(O)C1` (stereo not drawn) [Compound 56]: the Ki was 100 to 500 nM on JAK-2 enzyme and 500 to 5000 nM at JAK3.

Turning to `CC(O)CNC(=O)C(C)n1cc(-c2ncnc3[nH]ccc23)cn1` (stereo not drawn) [Compound 80], the Ki at JAK-2 enzyme is 500 to 5000 nM; at JAK3 it was 100 to 500 nM.

Take `CC(=O)NCCC(=O)Nc1nc(-c2ncnc3[nH]ccc23)cs1` [Compound 174]: the Ki at JAK-2 enzyme was less than 100 nM; on JAK3, 100 to 500 nM.

As for `CCN(Cc1ccncc1)C(=O)c1cc(-c2ncnc3[nH]ccc23)c[nH]1` [Compound 48], the Ki on JAK-2 enzyme and at JAK3 was less than 100 nM throughout.

For `CC(C)CN(C)C(=O)c1cc(-c2ncnc3[nH]ccc23)c[nH]1` [Compound 27], the Ki at JAK-2 enzyme is less than 100 nM; on JAK3 it was 100 to 500 nM.

For `N#CCCN(CC1CC1)C(=O)c1ccc(-c2ncnc3[nH]ccc23)o1` [Compound 125], the Ki at JAK-2 enzyme and at JAK3 was less than 100 nM throughout.

In the case of `CC(C)CC(=O)Nc1nc(-c2ncnc3[nH]ccc23)cs1` [Compound 31], the Ki at JAK-2 enzyme and on JAK3 was less than 100 nM throughout.

For `O=C(c1cc(-c2ncnc3[nH]ccc23)co1)N(CCC(F)(F)F)CC1CCC1` [Compound 250], the inhibitory constant (Ki) on JAK-2 enzyme is less than 100 nM; on JAK3, 100 to 500 nM.

As for `CCCC(CCC)n1cc(-c2ncnc3[nH]ccc23)cn1` [Compound 37], the Ki at JAK-2 enzyme and on JAK3 was less than 100 nM in each case.

With `O=C(NCc1ccccc1)c1cc(-c2ncnc3[nH]ccc23)c[nH]1` [Compound 214], the Ki at JAK-2 enzyme and on JAK3 was less than 100 nM throughout.

As for `CCN(CCO)C(=O)c1cc(-c2ncnc3[nH]ccc23)c[nH]1` [Compound 40], the Ki was less than 100 nM on JAK-2 enzyme and 100 to 500 nM at JAK3.

For `CC(C)NC(=O)c1cc(-c2ncnc3[nH]ccc23)c[nH]1` [Compound 8], the Ki at JAK-2 enzyme was less than 100 nM; at JAK3, 100 to 500 nM.

For the compound `COCCN(C)C(=O)c1cc(-c2ncnc3[nH]ccc23)cn1C` [Compound 233], the figures for the Ki at JAK-2 enzyme and at JAK3 were less than 100 nM and 500 to 5000 nM, respectively.

Turning to `CCCn1cc(-c2ncnc3[nH]cc(Cl)c23)cn1` [Compound 165], the Ki on JAK-2 enzyme is less than 100 nM; on JAK3 it was 100 to 500 nM.

On to `CN(CCC#N)C(=O)c1cc(-c2ncnc3[nH]ccc23)c[nH]1` [Compound 23], for which the Ki on JAK-2 enzyme and at JAK3 was less than 100 nM each time.

In the case of `CC1CC[C@@H](C)N1C(=O)c1coc(-c2ncnc3[nH]ccc23)c1` (stereo partly drawn) [Compound 197], the inhibition constant (Ki) was less than 100 nM on JAK-2 enzyme and 500 to 5000 nM at JAK3.

As to `CCCCN(CCC#N)C(=O)c1cc(-c2ncnc3[nH]ccc23)c[nH]1` [Compound 22], the inhibition constant (Ki) on JAK-2 enzyme and at JAK3 was less than 100 nM in each case.

In the case of `O=C(NC1CCCC1)c1cc(-c2ncnc3[nH]ccc23)c[nH]1` [Compound 13], the Ki on JAK-2 enzyme and at JAK3 was less than 100 nM each time.

Take `CCCNC(=O)C(C)n1cc(-c2ncnc3[nH]ccc23)cn1` (stereo not drawn) [Compound 90]: the Ki is 100 to 500 nM on JAK-2 enzyme and less than 100 nM at JAK3.

As to `COC(=O)C1CC=CCC1C(=O)Nc1nc(-c2ncnc3[nH]ccc23)cs1` (stereo not drawn) [Compound 149], the results for the Ki on JAK-2 enzyme and at JAK3 were less than 100 nM and 100 to 500 nM, respectively.

Regarding `O=C(Nc1nc(-c2ncnc3[nH]ccc23)cs1)C(O)c1ccccc1` (stereo not drawn) [Compound 101], the Ki at JAK-2 enzyme and at JAK3 was less than 100 nM each time.

Consider `Cn1cc(-c2ncnc3[nH]ccc23)cc1C(=O)N(CC1CC1)CC(F)(F)F` [Compound 228], for which the Ki at JAK-2 enzyme and on JAK3 was less than 100 nM each time.

`Cn1cc(-c2ncnc3[nH]ccc23)cc1C(=O)NCC(F)(F)F` [Compound 235]: the Ki at JAK-2 enzyme and on JAK3 was less than 100 nM each time.

`O=C(c1ccc(-c2ncnc3[nH]ccc23)o1)N(CCC(F)(F)F)CC1CCCC1` [Compound 212]: the Ki on JAK-2 enzyme and at JAK3 was less than 100 nM throughout.

As for `O=C1CCC(C(=O)Nc2nc(-c3ncnc4[nH]ccc34)cs2)CC1` [Compound 65], the Ki at JAK-2 enzyme and on JAK3 was less than 100 nM in each case.

In the case of `O=C(Nc1nc(-c2ncnc3[nH]ccc23)cs1)C1CCN(C(=O)c2ccccc2)CC1` [Compound 173], the Ki at JAK-2 enzyme and at JAK3 was less than 100 nM throughout.

Turning to `N#CCN(Cc1ccccc1)C(=O)c1ccc(-c2ncnc3[nH]ccc23)o1` [Compound 124], the Ki was less than 100 nM at JAK-2 enzyme and 100 to 500 nM at JAK3.

Turning to `CN(C)CCCN(C)C(=O)c1cc(-c2ncnc3[nH]ccc23)c[nH]1` [Compound 44], the Ki on JAK-2 enzyme and on JAK3 was 500 to 5000 nM each time.

`CC(C)CN(CC(C)C)C(=O)c1cc(-c2ncnc3[nH]ccc23)c[nH]1` [Compound 28]: the Ki on JAK-2 enzyme was less than 100 nM; on JAK3 it was 100 to 500 nM.

With `NC(=O)C1CCCN1C(=O)c1ccc(-c2ncnc3[nH]ccc23)o1` (stereo not drawn) [Compound 221], the inhibitory constant (Ki) on JAK-2 enzyme and at JAK3 was 500 to 5000 nM each time.

Consider `O=C(Nc1nc(-c2ncnc3[nH]ccc23)cs1)C1CCCC1O` (stereo not drawn) [Compound 60], for which the Ki at JAK-2 enzyme and at JAK3 was less than 100 nM each time.

In the case of `Cc1c[nH]c2ncnc(-c3cnn(CCC(C)C)c3)c12` [Compound 163], the inhibitory constant (Ki) on JAK-2 enzyme is less than 100 nM; at JAK3 it was 100 to 500 nM.

With `O=C(CCC1CC1)Nc1nc(-c2ncnc3[nH]ccc23)cs1` [Compound 96], the inhibition constant (Ki) at JAK-2 enzyme and at JAK3 was less than 100 nM each time.

For the compound `CN(Cc1cccnc1)C(=O)c1cc(-c2ncnc3[nH]ccc23)c[nH]1` [Compound 49], the values for the inhibitory constant (Ki) at JAK-2 enzyme and at JAK3 were less than 100 nM and 100 to 500 nM, respectively.

Turning to `CC#CCN(C(=O)c1cc(-c2ncnc3[nH]ccc23)c[nH]1)C1CCCCC1` [Compound 190], the Ki on JAK-2 enzyme lay in the range of 100 to 500 nM; at JAK3 it was 500 to 5000 nM.

For `O=C(CC1CCCC1)Nc1nc(-c2ncnc3[nH]ccc23)cs1` [Compound 32], the Ki on JAK-2 enzyme and on JAK3 was less than 100 nM in each case.

Take `CC(CC(F)(F)F)C(=O)Nc1nc(-c2ncnc3[nH]ccc23)cs1` (stereo not drawn) [Compound 102]: the inhibition constant (Ki) on JAK-2 enzyme and at JAK3 was less than 100 nM in each case.

Take `O=C(CC1CC1)Nc1nc(-c2ncnc3[nH]ccc23)cs1` [Compound 70]: the Ki on JAK-2 enzyme and on JAK3 was less than 100 nM each time.
